Experimental data reported in ChEMBL document CHEMBL5325497, “Facilitated Drug Repurposing with Artemisinin-Derived PROTACs: Unveiling PCLAF as a Therapeutic Target” (J Med Chem, 2023).
The source made the active and inactive calls. The calls are words filed in the database; no cut-off is given here.

Columns and labels:
RS4-11 [1] = test: Antiproliferative activity against human RS4-11 cells assessed as cell growth inhibition incubated for 48 hrs by CCK8 colorimetric assay; type: functional, cell-based; settings: RS4-11, 48 h
RPMI-8226 = test: Antiproliferative activity against human RPMI-8226 cells assessed as cell growth inhibition incubated for 48 hrs by CCK8 colorimetric assay; type: functional, cell-based; settings: RPMI-8226, 48 h
U-266 = test: Antiproliferative activity against human U266B1 cells assessed as cell growth inhibition incubated for 48 hrs by CCK8 colorimetric assay; type: functional, cell-based; settings: U-266, 48 h
PCNA-associated factor = target: T1, PCNA-associated factor (Homo sapiens, UniProt Q15004); test: Binding affinity to PCLAF (unknown origin) assessed as equilibrium dissociation constant by SPR assay
T1 sequence (Q15004 whole entry): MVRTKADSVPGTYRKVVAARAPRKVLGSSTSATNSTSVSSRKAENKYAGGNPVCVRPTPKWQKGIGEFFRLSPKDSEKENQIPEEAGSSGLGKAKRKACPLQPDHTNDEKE

RS4-11 [2] = test: Induction of apoptosis in human RS4-11 cells incubated for 48 hrs Annexin V-FITC/PI staining based flow cytometry analysis; type: functional, cell-based
RS4-11 [3] = test: Induction of apoptosis in human RS4-11 cells assessed as increase in early apoptosis at 10 to 200 nM incubated for 48 hrs Annexin V-FITC/PI staining based flow cytometry analysis; type: functional, cell-based; settings: dose 10-200 nM
RS4-11 [4] = test: Induction of apoptosis in human RS4-11 cells assessed as increase in late apoptosis at 10 to 200 nM incubated for 48 hrs Annexin V-FITC/PI staining based flow cytometry analysis; type: functional, cell-based; settings: dose 10-200 nM
RS4-11 [5] = test: Induction of cell cycle arrest in human RS4-11 cells assessed as accumulation of cells at G1 phase incubated for 48 hrs by propidium iodide staining based flow cytometry analysis; type: functional
[6] = Toxicity in NOD/SCID mouse xenografted with human RS4-11 cells assessed as maximum tolerated dose at IV administration for 5 consecutive days; settings: in vivo
[7] = Toxicity in NOD/SCID mouse xenografted with human RS4-11 cells assessed as change in body weight at 25 mg/kg,iv qd administration for 5 consecutive days; type: organism-based; settings: in vivo
[8] = Toxicity in NOD/SCID mouse xenografted with human RS4-11 cells assessed as pathological change in heart at 25 mg/kg,iv qd administration for 5 consecutive days by hematoxylin and eosin staining based microscopic analysis; type: organism-based; settings: in vivo
[9] = Toxicity in NOD/SCID mouse xenografted with human RS4-11 cells assessed as pathological change in liver at 25 mg/kg,iv qd administration for 5 consecutive days by hematoxylin and eosin staining based microscopic analysis; type: organism-based; settings: in vivo
[10] = Toxicity in NOD/SCID mouse xenografted with human RS4-11 cells assessed as pathological change in kidney at 25 mg/kg,iv qd administration for 5 consecutive days by hematoxylin and eosin staining based microscopic analysis; type: organism-based; settings: in vivo
[11] = Oral bioavailability in Sprague-Dawley rat at 50 mg/kg measured upto 24 hrs by LC-MS/MS analysis; type: ADME, organism-based; settings: in vivo
RS4-11 [12] = test: Antitumor activity against human RS4-11 cells xenografted in NOD/SCID mouse assessed as tumor growth inhibition at 1 mg/kg,iv administration for 5 consecutive days; type: functional, organism-based
RS4-11 [13] = test: Antitumor activity against human RS4-11 cells xenografted in NOD/SCID mouse assessed as tumor growth inhibition at 5 mg/kg,iv administration for 5 consecutive days; type: functional, organism-based
RS4-11 [14] = test: Antitumor activity against human RS4-11 cells xenografted in NOD/SCID mouse assessed as increase in survival day at IV administration for 5 consecutive days; type: functional
[15] = Toxicity in NOD/SCID mouse xenografted with human RS4-11 cells assessed as change in body weight at 1 mg/kg,iv qd administration for 5 consecutive days; type: organism-based; settings: in vivo
[16] = Toxicity in NOD/SCID mouse xenografted with human RS4-11 cells assessed as change in body weight at 5 mg/kg,iv qd administration for 5 consecutive days; type: organism-based; settings: in vivo
[17] = Toxicity in NOD/SCID mouse xenografted with human RS4-11 cells assessed as adverse effect at 1 mg/kg,iv qd administration for 5 consecutive days; type: organism-based; settings: in vivo
[18] = Toxicity in NOD/SCID mouse xenografted with human RS4-11 cells assessed as adverse effect at 5 mg/kg,iv qd administration for 5 consecutive days; type: organism-based; settings: in vivo
[19] = target: T2, Protein cereblon/PCNA-associated factor (Homo sapiens, UniProt Q15004+Q96SW2); test: PROTAC activity at CRBN/PCLAF in human RS4-11 cells assessed as degradation of PCLAF protein at 100 nM incubated for 12 hrs by Western blotting analysis; type: cell-based
Target sequence in this assay (Q96SW2 whole entry, looked up, one chain of several): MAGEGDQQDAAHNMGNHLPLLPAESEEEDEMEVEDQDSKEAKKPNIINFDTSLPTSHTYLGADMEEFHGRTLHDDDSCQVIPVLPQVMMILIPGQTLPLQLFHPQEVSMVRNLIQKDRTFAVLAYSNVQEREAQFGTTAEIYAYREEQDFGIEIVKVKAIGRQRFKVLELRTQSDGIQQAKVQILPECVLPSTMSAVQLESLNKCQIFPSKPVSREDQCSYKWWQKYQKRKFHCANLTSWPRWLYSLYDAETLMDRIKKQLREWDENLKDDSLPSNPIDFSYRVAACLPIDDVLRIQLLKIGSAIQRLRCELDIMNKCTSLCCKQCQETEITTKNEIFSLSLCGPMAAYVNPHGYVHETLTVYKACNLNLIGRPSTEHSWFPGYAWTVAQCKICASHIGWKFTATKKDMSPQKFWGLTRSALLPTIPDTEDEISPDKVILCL

[20] = target: T2, Protein cereblon/PCNA-associated factor; test: PROTAC activity at CRBN/PCLAF in human RS4-11 cells assessed as degradation of PCLAF protein at 100 nM incubated for 12 hrs in presence of MG132 by Western blotting analysis; type: cell-based
Target sequence in this assay (Q96SW2 whole entry, looked up, one chain of several): as above

[21] = target: T2, Protein cereblon/PCNA-associated factor; test: PROTAC activity at CRBN/PCLAF in human RS4-11 cells assessed as degradation of PCLAF protein by Western blotting analysis; type: cell-based
Target sequence in this assay (Q96SW2 whole entry, one chain of several): as the sequence (Q96SW2 whole entry, looked up, one chain of several) above

[22] = target: T2, Protein cereblon/PCNA-associated factor; test: PROTAC activity at CRBN/PCLAF in human RS4-11 cells assessed as maximal degradation of PCLAF protein by Western blotting analysis relative to control; type: cell-based
Target sequence in this assay (Q96SW2 whole entry, looked up, one chain of several): as above

[23] = target: T2, Protein cereblon/PCNA-associated factor; test: PROTAC activity at CRBN/PCLAF in human RS4-11 cells assessed as degradation of PCLAF protein at 4 hr by Western blotting analysis; type: cell-based
Target sequence in this assay (Q96SW2 whole entry, looked up, one chain of several): as above

[24] = target: T2, Protein cereblon/PCNA-associated factor; test: PROTAC activity at CRBN/PCLAF in human RS4-11 cells assessed as maximal degradation of PCLAF protein at 24 hr by Western blotting analysis; type: cell-based
Target sequence in this assay (Q96SW2 whole entry, looked up, one chain of several): as above

[25] = target: T2, Protein cereblon/PCNA-associated factor; test: PROTAC activity at CRBN/PCLAF in human RS4-11 cells assessed as degradation of PCLAF protein at 100 nM measured after 24 hr of compound washout by Western blotting analysis; type: cell-based
Target sequence in this assay (Q96SW2 whole entry, looked up, one chain of several): as above

[26] = target: T2, Protein cereblon/PCNA-associated factor; test: PROTAC activity at CRBN/PCLAF in human RS4-11 cells assessed as degradation of PCLAF protein at 100 nM incubated for 12 hrs in presence of SM1044 by Western blotting analysis; type: cell-based
[27] = target: T2, Protein cereblon/PCNA-associated factor; test: PROTAC activity at CRBN/PCLAF in human RS4-11 cells assessed as degradation of PCLAF protein at 100 nM incubated for 12 hrs in presence of pomalidomide by Western blotting analysis; type: cell-based
[28] = target: T3, PCNA-associated factor (Homo sapiens) (UniProt Q15004); test: Binding affinity to PCLAF in human RS4-11 cells assessed as thermal stability at 100 uM incubated for 60 mins by CETSA assay; type: cell-based
T3 sequence (whole entry): T1 sequence (Q15004 whole entry)

[29] = target: T2, Protein cereblon/PCNA-associated factor; test: PROTAC activity at CRBN/PCLAF in human RS4-11 cells assessed as degradation of PCLAF protein at 40 nM incubated for 40 mins by DARTS analysis; type: cell-based
[30] = target: T2, Protein cereblon/PCNA-associated factor; test: PROTAC activity at CRBN/PCLAF in human RS4-11 cells assessed as upregulation of p21 protein at 10 to 100 nM by Western blotting analysis; type: cell-based; settings: dose 10-100 nM
[31] = target: T2, Protein cereblon/PCNA-associated factor; test: PROTAC activity at CRBN/PCLAF in human RS4-11 cells assessed as downregulation of Rb phosphorylation at 10 to 100 nM by Western blotting analysis; type: cell-based; settings: dose 10-100 nM
[32] = target: T2, Protein cereblon/PCNA-associated factor; test: PROTAC activity at CRBN/PCLAF in human RS4-11 cells assessed as degradation of PCLAF protein at 10 to 100 nM by Western blotting analysis; type: cell-based; settings: dose 10-100 nM
RS4-11 [33] = test: Induction of apoptosis in human RS4-11 cells assessed as downregulation of Bcl-2 level at 10 to 100 nM by Western blotting analysis; type: functional, cell-based; settings: dose 10-100 nM
RS4-11 [34] = test: Induction of apoptosis in human RS4-11 cells assessed as upregulation of Bax level at 10 to 100 nM by Western blotting analysis; type: functional, cell-based; settings: dose 10-100 nM

With `C[C@@H]1CCC2[C@@H](C)[C@@H](OCCN(CCO[C@H]3O[C@@H]4O[C@@]5(C)CCC6[C@H](C)CCC([C@H]3C)[C@]64OO5)C(=O)CCCCCCNc3cccc4c3C(=O)N(C3CCC(=O)NC3=O)C4=O)O[C@@H]3O[C@@]4(C)CCC1[C@@]23OO4` (stereo partly drawn) the IC50 (RS4-11 [1]) was 0.0794 µM, the IC50 (RPMI-8226) was 0.104 µM and the IC50 (U-266) was 0.265 µM.
For `C[C@H]1[C@@H](OCCNCCO[C@H]2O[C@@H]3O[C@]4(C)CC[C@H]5[C@H](C)CC[C@@H]([C@H]2C)[C@@]35OO4)O[C@@H]2O[C@]3(C)CC[C@H]4[C@H](C)CC[C@@H]1[C@@]24OO3`, the IC50 (RS4-11 [1]) was 0.641 µM, the IC50 (RPMI-8226) was > 1 µM and the IC50 (U-266) was > 1 µM. The Kd (PCNA-associated factor) was 183 µM.
Molecule `C[C@@H]1CCC2[C@@H](C)[C@@H](OCCN(CCO[C@H]3O[C@@H]4O[C@@]5(C)CCC6[C@H](C)CCC([C@H]3C)[C@]64OO5)C(=O)CCCCCCCNc3cccc4c3C(=O)N(C3CCC(=O)NC3=O)C4=O)O[C@@H]3O[C@@]4(C)CCC1[C@@]23OO4` (stereo partly drawn) has an IC50 (RS4-11 [1]) of 0.0506 µM, an IC50 (RPMI-8226) of 0.235 µM and an IC50 (U-266) of 0.343 µM. For the same molecule, the Activity (RS4-11 [2]) was “Dose-Dependent Effect”, the Activity (RS4-11 [3]) was “Active” and the Activity (RS4-11 [4]) was “Active”. The Activity (RS4-11 [5]) was “Dose-Dependent Effect”, the MTD at 5 days [6] was 25 mg/kg and the Activity [7] was “Non-Toxic”. For the same molecule, the Activity [8] was “Non-Toxic”, the Activity [9] was “Non-Toxic” and the Activity [10] was “Non-Toxic”. The bioavailability [11] was 24%, the Activity (RS4-11 [12]) was “Active” and the Activity (RS4-11 [13]) was “Active”. The Activity (RS4-11 [14]) was “Dose-Dependent Effect”, the Activity [15] was “Non-Toxic” and the Activity [16] was “Non-Toxic”. For the same molecule, the Activity [17] was “Non-Toxic”, the Activity [18] was “Non-Toxic” and the Activity [19] was “Active”. The Activity [20] was “inactive”, the DC50 [21] was 0.0549 µM and the Emax [22] was 95%. The Activity [23] was “Active”, the Activity [24] was “Active” and the Activity [25] was “inactive”. The Activity [26] was “inactive”, the Activity [27] was “inactive” and the Activity [28] was “Active”. The Activity [29] was “inactive”, the Kd (PCNA-associated factor) was 6.1 µM and the Activity [30] was “Active”. The Activity [31] was “Active”, the Activity [32] was “Active” and the Activity (RS4-11 [33]) was “Active”. The Activity (RS4-11 [34]) was “Active”.
In the case of `C[C@@H]1CCC2[C@@H](C)[C@@H](OCCN(CCO[C@H]3O[C@@H]4O[C@@]5(C)CCC6[C@H](C)CCC([C@H]3C)[C@]64OO5)C(=O)CCCCNc3cccc4c3C(=O)N(C3CCC(=O)NC3=O)C4=O)O[C@@H]3O[C@@]4(C)CCC1[C@@]23OO4` (stereo partly drawn), the IC50 (RS4-11 [1]) is reported as 0.243 µM, the IC50 (RPMI-8226) is reported as > 1 µM and the IC50 (U-266) is reported as > 1 µM.
With `C[C@@H]1CCC2[C@@H](C)[C@@H](OCCN(CCO[C@H]3O[C@@H]4O[C@@]5(C)CCC6[C@H](C)CCC([C@H]3C)[C@]64OO5)C(=O)CCCCCCCCNc3cccc4c3C(=O)N(C3CCC(=O)NC3=O)C4=O)O[C@@H]3O[C@@]4(C)CCC1[C@@]23OO4` (stereo partly drawn) the IC50 (RS4-11 [1]) was 0.0724 µM, the IC50 (RPMI-8226) was 0.322 µM and the IC50 (U-266) was 0.407 µM.
Work on `C[C@@H]1CCC2[C@@H](C)[C@@H](OCCN(CCO[C@H]3O[C@@H]4O[C@@]5(C)CCC6[C@H](C)CCC([C@H]3C)[C@]64OO5)C(=O)CCCCCNc3cccc4c3C(=O)N(C3CCC(=O)NC3=O)C4=O)O[C@@H]3O[C@@]4(C)CCC1[C@@]23OO4` (stereo partly drawn) yielded an IC50 (RS4-11 [1]) of 0.0968 µM, an IC50 (RPMI-8226) of 0.148 µM and an IC50 (U-266) of 0.543 µM.
